Data published in ChEMBL document CHEMBL1153653, “Imidazo[4,5-b]pyridine-based AT1 / AT2 angiotensin II receptor antagonists” (Bioorg Med Chem Lett, 1994).
pIC50: −log10 of the molar value.

How the values were obtained:
[1] = target: T1, Type-2 angiotensin II receptor (Rattus norvegicus, UniProt P35351); assay: In vitro binding affinity determined by its ability to displace the specific binding ligand [125I]-Sar1, Ile8-AII from AT2 receptor in rat midbrain membranes; type: cell membranes, Membrane
T1 sequence (P35351 whole entry): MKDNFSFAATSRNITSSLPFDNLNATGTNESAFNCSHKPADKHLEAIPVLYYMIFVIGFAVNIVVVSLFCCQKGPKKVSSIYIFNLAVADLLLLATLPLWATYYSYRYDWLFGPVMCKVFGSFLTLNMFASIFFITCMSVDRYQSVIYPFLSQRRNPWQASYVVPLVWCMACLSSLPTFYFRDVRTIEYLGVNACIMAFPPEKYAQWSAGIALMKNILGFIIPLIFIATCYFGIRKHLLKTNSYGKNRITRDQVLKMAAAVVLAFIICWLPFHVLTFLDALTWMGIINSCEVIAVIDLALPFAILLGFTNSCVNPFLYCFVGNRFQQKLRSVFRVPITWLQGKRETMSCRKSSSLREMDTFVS

[2] = target: T2, Type-1 angiotensin II receptor (Oryctolagus cuniculus, UniProt P34976); assay: In vitro binding affinity determined by its ability to displace the specific binding ligand [125I]-Sar1, Ile8-AII from Angiotensin II receptor, type 1 in rabbit aorta membranes; type: cell membranes, Membrane
T2 sequence (P34976 whole entry): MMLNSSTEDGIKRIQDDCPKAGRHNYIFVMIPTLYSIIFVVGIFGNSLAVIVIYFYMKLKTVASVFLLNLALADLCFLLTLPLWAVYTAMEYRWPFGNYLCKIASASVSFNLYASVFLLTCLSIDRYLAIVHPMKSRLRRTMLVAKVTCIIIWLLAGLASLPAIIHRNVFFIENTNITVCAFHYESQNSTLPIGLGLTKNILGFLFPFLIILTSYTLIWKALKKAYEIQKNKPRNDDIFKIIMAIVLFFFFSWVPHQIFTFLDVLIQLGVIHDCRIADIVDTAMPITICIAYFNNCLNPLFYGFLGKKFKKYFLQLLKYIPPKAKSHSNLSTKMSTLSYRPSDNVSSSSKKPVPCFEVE

Canis familiaris [3] = assay: Inhibitory activity against AII-induced pressor responses in Beagle dogs at a dose of 1.0 upon po administration at duration of >6 hr; type: functional, Canis lupus familiaris
Canis familiaris [4] = assay: Inhibitory activity against AII-induced pressor responses in Beagle dogs at a dose of 0.3 upon iv administration at duration of >6 hr; type: functional, Canis lupus familiaris
[5] = target: Angiotensin II receptor (Homo sapiens) (UniProt P30556+P50052); assay: Ratio of IC50 of AT2/AT1 receptors; type: protein assay
Rattus norvegicus [6] = assay: Effective dose in rat after peroral administration; Range is (0.25 - 0.31); type: functional; settings: po
Canis familiaris [7] = assay: Effective dose in Beagle dog after intravenous administration; Range is (0.025 - 0.029); type: functional; settings: Canis lupus familiaris
Rattus norvegicus [8] = assay: Inhibitory activity against AII-induced pressor responses in rats at a dose of 0.3 upon po administration at duration of >6 hr; type: functional
Rattus norvegicus [9] = assay: Inhibitory activity against AII-induced pressor responses in rats at a dose of 0.3 upon iv administration at duration of >6 hr; type: functional
Rattus norvegicus [10] = assay: Effective dose in rat after intravenous administration; Range is (0.12 - 0.15); type: functional
Canis familiaris [11] = assay: Effective dose in Beagle dog after peroral administration; Range is (0.52 - 0.64); type: functional; settings: Canis lupus familiaris, po
Rattus norvegicus [12] = assay: Effective dose in rat after intravenous administration; Range is (0.062 - 0.076); type: functional
Rattus norvegicus [13] = assay: Inhibition on AII-induced pressor responses in rats at a dose of 0.3 upon po administration at duration of >6 hr; type: functional
Rattus norvegicus [14] = assay: Inhibition on AII-induced pressor responses in rats at a dose of 0.3 upon iv administration at duration of >6 hr; type: functional
Rattus norvegicus [15] = assay: Effective dose in rat after peroral administration; Range is (0.001 - 0.167); type: functional; settings: po
Canis familiaris [16] = assay: Inhibition on AII-induced pressor responses in Beagle dogs at a dose of 0.3 upon iv administration at duration of >6 hr; type: functional, Canis lupus familiaris

| pIC50 [1] | pIC50 [2] | SMILES | also measured |
| --- | --- | --- | --- |
| 9.51 | 10.00 | CCCCC(=O)Nc1cc2nc(CCCC)n(Cc3ccc(-c4ccccc4S(=O)(=O)NC(=O)CCC4CCCC4)cc3)c2nc1C | – |
| 8.25 | 9.29 | CCCCOC(=O)NS(=O)(=O)c1ccccc1-c1ccc(Cn2c(CCC)nc3c(C)c(NC(=O)CCC)cnc32)cc1 | – |
| 8.57 | 9.43 | CCCCCC(=O)NS(=O)(=O)c1ccccc1-c1ccc(Cn2c(CCCC)nc3cc(NC(=O)CCCC)cnc32)cc1 | – |
| 9.60 | 9.59 | CCCC(=O)Nc1c(C)nc2c(nc(CCC)n2Cc2ccc(-c3ccccc3S(=O)(=O)NC(=O)CCC3CCCC3)cc2)c1C | – |

Continued, molecule first:

| SMILES | pIC50 [1] | pIC50 [2] | also measured |
| --- | --- | --- | --- |
| CCc1nc2c(C)cc(C)nc2n1Cc1ccc(-c2ccccc2S(=O)(=O)NC(=O)CCC2CCCC2)cc1 | 7.48 | 10.00 | – |
| CCc1nc2c(C)cc(C)nc2n1Cc1ccc(-c2ccccc2-c2nnn[nH]2)cc1 [L-158809] | < 5.00 | – | – |
| CCCCc1nc2cc(NC(=O)N(c3ccccc3)c3ccccc3)c(C)nc2n1Cc1ccc(-c2ccccc2-c2nn[nH]n2)cc1 | 6.29 | 9.22 | – |
| CCCC(=O)Nc1cnc2c(nc(CCC)n2Cc2ccc(-c3ccccc3S(=O)(=O)NC(=O)OCc3ccccc3)cc2)c1C | 9.03 | 9.48 | Max inhibition (Canis familiaris [3]): 76%; Max inhibition (Canis familiaris [4]): 100%; Ratio [5]: 2.8; ED50 (Rattus norvegicus [6]): 0.28 mg/kg; ED50 (Canis familiaris [7]): 0.027 mg/kg; Max inhibition (Rattus norvegicus [8]): 58%; Max inhibition (Rattus norvegicus [9]): 85%; ED50 (Rattus norvegicus [10]): 0.13 mg/kg; ED50 (Canis familiaris [11]): 0.58 mg/kg |
| CCCCOC(=O)NS(=O)(=O)c1ccccc1-c1ccc(Cn2c(CCCC)nc3cc(NC(=O)CCCC)c(C)nc32)cc1 | – | – | ED50 (Rattus norvegicus [12]): 0.069 mg/kg; Max inhibition (Rattus norvegicus [13]): 86%; Max inhibition (Rattus norvegicus [14]): 82%; ED50 (Rattus norvegicus [15]): 0.014 mg/kg; Max inhibition (Canis familiaris [16]): 100% |
| CCCCCN(C(=O)c1ccccc1)c1ccc2nc(CCC)n(Cc3ccc(-c4ccccc4-c4nn[nH]n4)cc3)c(=O)c2c1 | – | 9.00 | – |
